Here are results for 17 molecules from patent US6656911B2, “Serine protease inhibitors” (Cortech, Inc., priority 1994, dated 2003).

Series [1] addresses T1, human neutrophil elastase (HNE) (Homo sapiens, UniProt P08246).
T1 sequence (P08246 30-267): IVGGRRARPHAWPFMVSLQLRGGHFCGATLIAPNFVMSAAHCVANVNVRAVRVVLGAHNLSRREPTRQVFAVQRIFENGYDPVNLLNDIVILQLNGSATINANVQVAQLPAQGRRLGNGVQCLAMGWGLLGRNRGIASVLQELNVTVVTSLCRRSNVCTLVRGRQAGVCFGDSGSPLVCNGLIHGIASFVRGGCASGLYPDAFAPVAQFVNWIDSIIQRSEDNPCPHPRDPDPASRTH
As to the kind of experiment: HNE Ki of CE compounds, tested as described in WO 96/16080. It is filed as biochemical. The following applies: read-out: HNE Ki.

Series [2] deals with polymorphoneucleocyte (PMN). As to the kind of experiment: Extracellular Matrix (ECM) degradation assay. Format: cell-based. The following applies: PMN's stimulated with opsonized zymosan, 4 hr at 37° C. As to the method: Forty-eight well plates on which extracellular matrix had been established were supplied to Cortech by Dr. Simon's group at the State University of New York at Stony Brook. Briefly, the plates were prepared as follows: R22 rat heart smooth muscle cells were seeded into wells at 2.5×10^4 cells/cm. The cells were fed every 4 days with Eagle's Minimal Essential Media supplemented with fetal bovine serum, tryptose phosphate broth, cefotaxime and streptomycin. At confluence, daily supplements of 50 ug/ml ascorbic acid were added for 8 to 10 days during the synthesis of the ECM layer. [^35S]sulfate and [^3H]proline were also added to the culture media to incorporate radiolabel into the matrix. Cells were later lysed with 25 mM NH4OH. Plates were washed three times with water and once with phosphate-buffered saline containing 0.02% NaN3. Plates were stored at 4° C. until use.
Matrix degradation assays were performed as follows: 0.40 ml of Hanks balance salt solution (HBSS) containing 1 or 5 uM test inhibitor (final concentration; diluted from DMSO stock solution; <2% DMSO final concentration) was added to the wells. After 30 minutes, 50 ul of a polymorphoneucleocyte (PMN) suspension was added resulting in 5×10^5 cells/well. PMN's were stimulated with opsonized zymosan. Zymosan particles were washed and suspended in 0.5 ml human serum for 1 hr at 37° C., vortexing every 15 min. The particles were then washed three times with HBSS and added to wells at a ratio of 10 particles/PMN in a volume of 50 ul. After a 4 hr incubation at 37° C., a 100 ul aliquot of the supernatant was withdrawn for scintillation counting. Following removal of the remaining supernatant, the residual ECM was solubilized with 0.5 ml 2M NaOH. The amount of tritium in this solubilized ECM was accessed by scintillation. ECM degradation data are expressed as (soluble counts released/total ECM counts)—(basal counts released without PMN's/total ECM counts).

Series [3] is described as follows: Blood level screening after oral dose. It is filed as in vivo, Sprague-Dawley rats. The following applies: rat, oral gavage 10 mg/kg; for concentration at 3 h: read-out: Plasma Levels (μM) 3 hr. As to the method:
The inhibitors were dissolved or suspended in polyethylene glycol (PEG), PEG-400 or PEG:H2O:EtOH at a concentration of 10 mg/ml. Unfasted male Sprague-Dawley rats were given an oral dose of this solution by gavage. Rats received 10 mg inhibitor/kg body weight in a volume of 1 ml/kg. After 1,3 or 6 hr., the rats were killed with an overdose of urethane (2.5 g/kg; i.p.) and the blood collected in a heparinized tube via cardiac puncture. Red blood cells were separated from the plasma by centrifugation.
Depending on the inhibitor, one of four organics (ethyl acetate, toluene, isopropyl ether or methyl t-butyl ether) was used to extract the compound from the plasma. Inhibitor concentrations were measured by HPLC or LC/MS analysis.

“2-Oxo-5-methyl-1,4-(2-phenyl-1-thiophenodiazepine)-N-[1-(2-[5-(3-methylbenzyl)-1,3,4-oxadiazolyl]carbonyl)-2-(S)-methylpropyl]acetamide [CE2245]”: the Ki in series [1] was determined as 24 nM. Besides, the “ECM DATA % Inhibition 1 uM” value in series [2] (1 uM inhibitor) was 34.7%. Moreover, the “ECM DATA % Inhibition 5 uM” value in series [2] (5 uM inhibitor) turned out to be 39.3%.
For the molecule `Cc1cccc(Cc2nnc(C(=O)[C@@H](NC(=O)Cn3c(-c4ccc(F)cc4)ncc(NC(=O)OCc4ccccc4)c3=O)C(C)C)o2)c1` [CE2095, 2-[5-[(Benzyloxycarbonyl)amino]-6-oxo-2-(4-fluorophenyl)-1,6-dihydro-1-pyrimidinyl]-N-[1-(2-[5-(3-methylbenzyl)-1,3,4-oxadiazolyl]carbonyl)-(S)-2-methylpropyl]acetamide], in series [1], the Ki worked out at 0.21 nM. Also, in series [2] (1 uM inhibitor), the inhibition at 1 µM is 60.4%. The inhibition at 5 µM in series [2] (5 uM inhibitor) is 55.6%.
The matching figures for `Cc1cccc(Cc2nnc(C(=O)[C@@H](NC(=O)CN3C(=O)N(Cc4ccccc4)C(=O)[C@H]3Cc3ccccc3)C(C)C)o2)c1` [CE2151, 1-Benzyl-4-(R)-benzyl-2,5-imidazolidinedione-N-[1-(2-[5-(3-methylbenzyl)-1,3,4-oxadiazolyl]carbonyl)-2-(S)-methylpropyl]acetamide]: 59 nM, 14.2% and -8.3%.
`CC(=O)N1c2ccccc2C[C@H]1C(=O)N[C@H](C(=O)c1nnc(Cc2cccc(C)c2)o1)C(C)C` [CE2165, N-Acetyl-2-(L)-(2,3-dihydro-1H-indole)-N-[1-(2-[5-(3-methylbenzyl) 1,3,4-oxadiazolyl]carbonyl)-2-(S)-methylpropyl]amide]: the inhibition constant (Ki) in series [1] turned out to be 2.6 nM. For the same molecule, the concentration at 3 h in series [3] (male, Sprague-Dawley, plasma) was found to be 0.067 µM.
The like results for `CC(C)[C@H](NC(=O)[C@@H]1CCCN1C(=O)[C@@H](NS(C)(=O)=O)C(C)C)C(=O)c1noc(Cc2cccc(C(F)(F)F)c2)n1` [CE2172, Methylsulfonyl-L-valyl-N-[1-(3-[5-(3-trifluoromethylbenzyl)-1,2,4-oxadiazolyl]carbonyl)-2-(S)-methylpropyl]-L-prolinamide] were, in that order, 2.2 nM and 0.021 µM.
For `CC(C)[C@H](NC(=O)CN1C(=O)NC(=Cc2cccnc2)C1=O)C(=O)c1noc(Cc2cccc(C(F)(F)F)c2)n1` [CE2203, [4-(R)-(3-pyridylmethylene)]-2,5-imidazolidinedione-N-[1-(3-[5-(3-trifluoromethylbenzyl)-1,2,4-oxadiazolyl]carbonyl)-2-(S)-methylpropyl]acetamide], in series [1], the Ki was found to be 79 nM. The “Plasma Levels (μM) 3 hr” value in series [3] was 0.004 µM.
Take `Cc1cccc(Cc2nnc(C(=O)[C@@H](NC(=O)CN3C[C@@H](c4ccccc4)N(C(=O)OCc4ccccc4)CC3=O)C(C)C)o2)c1` [CE2204, 1-Benzyloxycarbonyl-(2-(R)-phenylpiperazin-5-one)-N-[-(2-[5-(3-methylbenzyl)-1,3,4-oxadiazolyl]carbonyl)-2-(S)-methylpropyl]acetamide]: the Ki in series [1] was 7.4 nM. Also, the concentration at 3 h in series [3] (male, Sprague-Dawley, plasma) amounted to 0.48 µM.
With `CCc1cccc(Cc2nnc(C(=O)[C@@H](NC(=O)CN3C(=O)NC(=Cc4cccnc4)C3=O)C(C)C)o2)c1` [CE2205, [4-(R)-(3-pyridylmethylene)]-2,5-imidazolidinedione-N-[1-(2-[5-(3-ethylbenzyl)-1,3,4-oxadiazolyl]carbonyl)-2-(S)-methylpropyl]acetamide], in series [1], the Ki was determined as 37 nM. Further, in series [3], the “Plasma Levels (μM) 3 hr” value was 0.475 µM.
With `CC(C)OC(=O)N[C@H](C(=O)N1CCC[C@H]1C(=O)N[C@H](C(=O)c1noc(Cc2cccc(C(F)(F)F)c2)n1)C(C)C)C(C)C` [CE2207, Isopropytoxycarbonyl-L-valyl-N-[1-(3-[5-(3-trifluoromethylbenzyl)-1,2,4-oxadiazolyl]carbonyl)-2-(S)-methylpropyl]-L-prolinamide], the Ki in series [1] was 1.2 nM. Moreover, the concentration at 3 h in series [3] (male, Sprague-Dawley, plasma) was determined as 0 µM.
`CC(C)[C@H](NC(=O)CN1C(=O)NC(c2ccncc2)(N2C(=O)CCC2=O)C1=O)C(=O)c1noc(Cc2cccc(C(F)(F)F)c2)n1` (stereo partly drawn) [CE2209, [4-(R,S)-(4-pyridyl)-4-(R,S)-N-succinimidyl]-2,5-imidazolidinedione-N-[1-(3-[5-(3-trifluoromethylbenzyl)-1,2,4-oxadiazolyl]carbonyl)-2-(S)-methylpropyl]acetamide]: the Ki in series [1] was 36.4 nM. Besides, the “Plasma Levels (μM) 3 hr” value in series [3] amounted to 0 µM.
In the case of `COC(=O)N[C@H](C(=O)N1CCC[C@H]1C(=O)N[C@H](C(=O)c1nnc(Cc2cccc(C)c2)o1)C(C)C)C(C)C` [CE2213, Methyloxycarbonyl-L-valyl-N-[1-(2-[5-(3-methylbenzyl)-1,3,4-oxadiazolyl]carbonyl)-2-(S)-methylpropyl]-L-prolinamide], the Ki in series [1] turned out to be 0.14 nM. Besides, in series [3] (male, Sprague-Dawley, plasma), the concentration at 3 h turned out to be 0.19 µM.
The matching figures for `COC(=O)N[C@H](C(=O)N1CCC[C@H]1C(=O)N[C@H](C(=O)c1noc(Cc2cccc(C(F)(F)F)c2)n1)C(C)C)C(C)C` [CE2214, Methyloxycarbonyl-L-valyl-N-[1-(3-[5-(3 trifluoromethylbenzyl)-1,2,4-oxadiazolyl]carbonyl)-2-(S)-methylpropyl]-L-prolinamide]: 0.92 nM and 0 µM.
`Cc1cccc(Cc2nnc(C(=O)[C@@H](NC(=O)Cn3c(=O)ncc4ccccc43)C(C)C)o2)c1` [CE2215, 1,4-Quinazolin-2-one-N-[1-(2-[5-(3-methylbenzyl)-1,3,4-oxadiazolyl]carbonyl)-2-(S)-methylpropyl]acetamide]: the Ki in series [1] is 163 nM. In series [3] (1 hr), the “Plasma Levels (μM) 1 hr” value was 1.16 µM. The “Plasma Levels (μM) 3 hr” value in series [3] was 0.83 µM. Further, the “Plasma Levels (μM) 6 hr” value in series [3] (6 hr) was 0.63 µM.
The matching figures for `Cc1cccc(Cc2nnc(C(=O)[C@@H](NC(=O)CN3C(=O)N[C@@H](CC(C)C)C3=O)C(C)C)o2)c1` [CE2227, 4-(S)-(2-Isobutyl)-2,5-imidazolidinedione-N-[1-(2-[5-(3-methylbenzyl)-1,3,4-oxadiazolyl]carbonyl)-2-(S)-methylpropyl]acetamide]: 40 nM, 1.276 µM, 0.74 µM and 0.962 µM.
For `Cc1cccc(Cc2nnc(C(=O)[C@@H](NC(=O)CN3C(=O)NC4(CCCC4)C3=O)C(C)C)o2)c1` [CE2231, 4-Spirocyclopentane-2,5-imidazolidinedione-N-[1-(2-[5-(3-methylbenzyl)-1,3,4-oxadiazolyl]carbonyl)-2-(S)-methylpropyl]acetamide], the Ki in series [1] came to 16 nM. Moreover, in series [3] (1 hr), the “Plasma Levels (μM) 1 hr” value was found to be 1.226 µM. In addition, the “Plasma Levels (μM) 3 hr” value in series [3] worked out at 0.787 µM. Further, in series [3] (6 hr), the “Plasma Levels (μM) 6 hr” value turned out to be 0.531 µM.
For the molecule `Cc1cccc(Cc2nnc(C(=O)[C@@H](NC(=O)CN(C(=O)[C@@H](NC(=O)OCc3ccccc3)C(C)C)c3ccccc3)C(C)C)o2)c1` [CE2232, Benzyloxycarbonyl-L-valyl-N-(phenyl)glycyl-N-[1-(2-[5-(3-methylbenzyl)-1,3,4-oxadiazolyl]carbonyl)-2-(S)-methylpropyl]amide], the Ki in series [1] amounted to 0.15 nM. Moreover, the concentration at 1 h in series [3] (male, Sprague-Dawley, plasma, 1 hr, read-out: Plasma Levels (μM) 1 hr) is 0.44 µM. Moreover, the concentration at 3 h in series [3] (male, Sprague-Dawley, plasma) turned out to be 0.44 µM. Moreover, in series [3] (male, Sprague-Dawley, plasma, 6 hr, read-out: Plasma Levels (μM) 6 hr), the concentration at 6 h came out at 0.26 µM.
Turning to “BTD-[1-(2-[5-(3-methylbenzyl)-1,3,4-oxadiazolyl]carbonyl)-2-(S)-methylpropyl]amide [CE2126]”, in series [1], the Ki came out at 5 nM. Also, the “Plasma Levels (μM) 3 hr” value in series [3] is 0.161 µM.
